Columns and labels:
Type in all cases: cell-based
[1] = test system: TCF4; assay: Effect on TCF4 expression (Table 9)
Excerpt: (§1) The effects of various compounds having general formula (I) on survivin and TCF4 expression were characterized.

[2] = test system: Survivin; assay: Effect on survivin expression (Table 9)
Excerpt: as §1

[3] = test system: survivin promoter in SW480 cells; assay: Survivin luciferase reporter in SW480 cells; conditions: Homo sapiens, SW480; Table 10; prodrug compounds, reporter gene assay Survivin; read-out: RGA, Survivin IC50
[4] = test system: TCF4/β-catenin transcription (TOPFlash) in SW480 cells; assay: Reporter gene assay (TOPFlash luciferase); conditions: Homo sapiens, SW480, Table 10; prodrug compounds, reporter gene assay TopF; read-out: RGA, TopF IC50
Outline: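 SW480 cells transiently co-transfected with TOPFlash and pRL-null (4:1 µg) using Superfect, then reseeded at 3×10^4 cells/well and incubated overnight at 37 °C. Compound treatment lasted 24 h before luciferase read-out.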

[5] = test system: HCT116 cells; assay: MTS cytotoxicity test; conditions: Homo sapiens, HCT-116, Table 10, prodrug compounds, 24 hours treatment, read-out: MTS, HCT116 (uM) LD50
Protocol: (§2) SW480 or HCT116 cells were placed into 96 well microplate (10^4cells/well) and incubated for 24 hours at 37° C. The cells were treated with TCF4 compound at various concentrations for 24 hours. 20 μl of MTS solution (Promega) was added into each well and incubated for 2 hours at 37° C. Cell viability was measured by reading the absorbance at 490 nm using microplate reader (Molecular Device) and cytotoxicity of a compound at each concentration was calculated.

[6] = test system: SW480 cells; assay: MTS cytotoxicity test; conditions: Homo sapiens, Table 10, prodrug compounds, 24 hours treatment, read-out: MTS, SW480 (uM) LD50
Protocol: as §2

[7] = test system: HCT116 cells; assay: Growth inhibition assay (MTS); conditions: Homo sapiens, HCT-116; Table 10; prodrug compounds, HCT116 cells, growth inhibition; read-out: MTS, HCT116 (uM) GI50
Outline: (§3)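 Cells seeded at 10^4 per well, grown 24 h at 37° C, then exposed to compound at various concentrations for 48 hours. MTS added for 2 h; absorbance at 490 nm gave viability, with cytotoxicity calculated per concentration against pre-treatment reading.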

[8] = test system: SW480 cells; assay: Growth inhibition assay (MTS); conditions: Homo sapiens; Table 10; prodrug compounds, SW480 cells, growth inhibition; read-out: MTS, SW480 (uM) GI50
Outline: as §3

Row | IC50 [1] [µM] | SMILES | inhibition at 5 µM [2] [%] | inhibition at 25 µM [2] [%] | IC50 [3] [µM] | IC50 [4] [µM] | IC50 [5] [µM] | IC50 [6] [µM] | GI50 [7] [µM] | GI50 [8] [µM]
1 | 2.8 ± 0.4 | CN1CC(=O)N2[C@@H](CN(Cc3cccc4cnn(C)c34)C(=O)[C@@H]2Cc2ccc(O)cc2)N1C(=O)NCc1ccccc1 | 82 | 97 | – | – | – | – | – | –
2 | 1.3 ± 0.1 | CN1CC(=O)N2[C@@H](CN(Cc3ccc(F)cc3C(F)(F)F)C(=O)[C@@H]2Cc2ccc(O)cc2)N1C(=O)NCc1ccccc1 | 0 | 80 | – | – | – | – | – | –
3 | 7.3 ± 1.1 | CN(C)c1c(Cl)cccc1CN1C[C@@H]2N(C(=O)CN(C)N2C(=O)NCc2ccccc2)[C@@H](Cc2ccc(O)cc2)C1=O | 0 | 21 | – | – | – | – | – | –
4 | 2.6 ± 0.6 | CN1CC(=O)N2[C@@H](CN(Cc3ccc(Cl)c4cccnc34)C(=O)[C@@H]2Cc2ccc(O)cc2)N1C(=O)NCc1ccccc1 | 86 | 91 | – | – | – | – | – | –
5 | – | CN1CC(=O)N2[C@@H](Cc3ccc(OP(=O)(O)O)cc3)C(=O)N(Cc3ccc4ncsc4c3)C[C@@H]2N1C(=O)NCc1ccccc1 [Compound 11] | – | – | 6.7 | 10.3 | > 50 | > 50 | 6.3 | 6.5
6 | ~6.3 | CN1CC(=O)N2C(Cc3ccc(O)cc3)C(=O)N(Cc3ccc(F)cc3F)CC2N1C(=O)NCc1ccccc1 (stereo not drawn) | 51 | 93 | – | – | – | – | – | –
7 | – | C=CCN1CC(=O)N2[C@@H](Cc3ccc(OP(=O)(O)O)cc3)C(=O)N(Cc3cccc4c3N(C)CCO4)C[C@@H]2N1C(=O)NCc1ccccc1 [Compound 12] | – | – | 0.7 | 1 | 19.3 | > 50 | 1.2 | 1
8 | 13.9 ± 2.3 | CN(C)c1cc(Cl)ccc1CN1C[C@@H]2N(C(=O)CN(C)N2C(=O)NCc2ccccc2)[C@@H](Cc2ccc(O)cc2)C1=O | 6 | 89 | – | – | – | – | – | –
9 | – | C=CCN1CC(=O)N2[C@@H](Cc3ccc(OP(=O)(O)O)cc3)C(=O)N(Cc3cccc4cccnc34)C[C@@H]2N1C(=O)NCc1ccccc1 [Compound 6] | – | – | 0.1 | 0.8 | 6.4 | 9.2 | 0.4 | 0.5
10 | – | CN1CC(=O)N2[C@@H](Cc3ccc(OP(=O)(O)O)cc3)C(=O)N(Cc3cccc4cccnc34)C[C@@H]2N1C(=O)NCc1ccccc1 [Compound 9] | – | – | 6 | 9.6 | > 50 | > 50 | 14.7 | 7.6
11 | 4.6 ± 0.7 | CN1CC(=O)N2[C@@H](CN(Cc3cccc4cn[nH]c34)C(=O)[C@@H]2Cc2ccc(O)cc2)N1C(=O)NCc1ccccc1 | 80 | 97 | – | – | – | – | – | –
12 | 18.2 ± 2.4 | CN(C)c1cccc(F)c1CN1C[C@@H]2N(C(=O)CN(C)N2C(=O)NCc2ccccc2)[C@@H](Cc2ccc(O)cc2)C1=O | 0 | 6 | – | – | – | – | – | –
13 | 4.8 ± 0.4 | Cc1cc(C)c(N(C)C)c(CN2C[C@@H]3N(C(=O)CN(C)N3C(=O)NCc3ccccc3)[C@@H](Cc3ccc(O)cc3)C2=O)c1 | 0 | 84 | – | – | – | – | – | –
14 | – | C=CCN1CC(=O)N2[C@@H](Cc3ccc(OP(=O)(O)O)cc3)C(=O)N(Cc3ccc(F)cc3F)C[C@@H]2N1C(=O)NCc1ccccc1 [Compound 8] | – | – | 0.9 | 1.4 | 23.2 | 21.6 | 1.9 | 2.1
15 | 7.3 ± 0.6 | CN(C)c1cc(CN2C[C@@H]3N(C(=O)CN(C)N3C(=O)NCc3ccccc3)[C@@H](Cc3ccc(O)cc3)C2=O)ccc1Cl | 0 | 92 | – | – | – | – | – | –
16 | 1.4 ± 0.2 | CN(C)c1cc(F)c(F)cc1CN1C[C@@H]2N(C(=O)CN(C)N2C(=O)NCc2ccccc2)[C@@H](Cc2ccc(O)cc2)C1=O | 9 | 91 | – | – | – | – | – | –
17 | 5.2 ± 0.7 | CN(C)c1ccccc1CN1C[C@@H]2N(C(=O)CN(C)N2C(=O)NCc2ccccc2)[C@@H](Cc2ccc(O)cc2)C1=O | 41 | 92 | – | – | – | – | – | –
18 | 3.9 ± 0.55 | Cc1c(CN2C[C@@H]3N(C(=O)CN(C)N3C(=O)NCc3ccccc3)[C@@H](Cc3ccc(O)cc3)C2=O)cccc1N(C)C | 48 | 96 | – | – | – | – | – | –
19 | 5.2 ± 1.1 | CN(C)c1c(CN2C[C@@H]3N(C(=O)CN(C)N3C(=O)NCc3ccccc3)[C@@H](Cc3ccc(O)cc3)C2=O)cccc1C(F)(F)F | 0 | 91 | – | – | – | – | – | –

Row | IC50 [1] [µM] | SMILES | inhibition at 5 µM [2] [%] | inhibition at 25 µM [2] [%] | IC50 [3] [µM] | IC50 [4] [µM] | IC50 [5] [µM] | IC50 [6] [µM] | GI50 [7] [µM] | GI50 [8] [µM]
20 | 2.2 ± 0.2 | CN(C)c1ccc(Cl)cc1CN1C[C@@H]2N(C(=O)CN(C)N2C(=O)NCc2ccccc2)[C@@H](Cc2ccc(O)cc2)C1=O | 0 | 93 | – | – | – | – | – | –
21 | ~2.2 | CN1CC(=O)N2C(Cc3ccc(O)cc3)C(=O)N(Cc3cccc4cccnc34)CC2N1C(=O)NCc1ccccc1 (stereo not drawn) | 97 | 100 | – | – | – | – | – | –
22 | 6.3 ± 0.431 | CC(C)N(C)c1cccc(CN2C[C@@H]3N(C(=O)CN(C)N3C(=O)NCc3ccccc3)[C@@H](Cc3ccc(O)cc3)C2=O)c1 | 5 | 91 | – | – | – | – | – | –
23 | – | CN1CC(=O)N2[C@@H](Cc3ccc(OP(=O)(O)O)cc3)C(=O)N(Cc3cccc4cnn(C)c34)C[C@@H]2N1C(=O)NCc1ccccc1 [Compound 5] | – | – | – | 26 | > 50 | 34 | 16.5 | 5.2
24 | 11.2 ± 1.5 | CN1CC(=O)N2[C@@H](Cc3ccc(O)cc3)C(=O)N(Cc3c(Cl)cc(Cl)c4cccnc34)C[C@@]2(C)N1C(=O)NCc1ccccc1 | 6 | 58 | – | – | – | – | – | –
25 | 5.9 ± 0.5 | COc1cccc(CN2C[C@@H]3N(C(=O)CN(C)N3C(=O)NCc3ccccc3)[C@@H](Cc3ccc(O)cc3)C2=O)c1N(C)C | 9 | 92 | – | – | – | – | – | –
26 | – | CN(C)c1cc(F)ccc1CN1C[C@H]2N(C(=O)CN(C)N2C(=O)NCc2ccccc2)[C@@H](Cc2ccc(OP(=O)(O)O)cc2)C1=O [Compound 3] | – | – | – | 11.5 | 41.9 | > 50 | 3.1 | 3
27 | 13.2 ± 4.1 | CN1CC(=O)N2[C@@H](CN(Cc3cccc4c3ncn4C)C(=O)[C@@H]2Cc2ccc(O)cc2)N1C(=O)NCc1ccccc1 | 45 | 88 | – | – | – | – | – | –
28 | 10.7 ± 1.7 | CC(C)N(C)c1ccccc1CN1C[C@@H]2N(C(=O)CN(C)N2C(=O)NCc2ccccc2)[C@@H](Cc2ccc(O)cc2)C1=O | 27 | 98 | – | – | – | – | – | –
29 | 27.1 ± 4.6 | CC(C)N(C)c1ccc(Cl)c(CN2C[C@@H]3N(C(=O)CN(C)N3C(=O)NCc3ccccc3)[C@@H](Cc3ccc(O)cc3)C2=O)c1 | 25 | 44 | – | – | – | – | – | –
30 | 4.4 ± 0.6 | CCN(C)c1cccc(CN2C[C@@H]3N(C(=O)CN(C)N3C(=O)NCc3ccccc3)[C@@H](Cc3ccc(O)cc3)C2=O)c1 | 46 | 96 | – | – | – | – | – | –
31 | – | Cc1cccc(N(C)C)c1CN1C[C@@H]2N(C(=O)CN(C)N2C(=O)NCc2ccccc2)[C@@H](Cc2ccc(O)cc2)C1=O | 8 | 4 | – | – | – | – | – | –
32 | 1.7 ± 0.2 | CN(C)c1cc(F)ccc1CN1C[C@@H]2N(C(=O)CN(C)N2C(=O)NCc2ccccc2)[C@@H](Cc2ccc(O)cc2)C1=O | 79 | 81 | – | – | – | – | – | –
33 | ~2 | CN1CC(=O)N2[C@@H](Cc3ccc(O)cc3)C(=O)N(Cc3cccc4ccccc34)C[C@@]2(C)N1C(=O)NCc1ccccc1 | 100 | 99 | – | – | – | – | – | –
34 | 2.6 ± 0.4 | Cc1ccc(N(C)C)c(CN2C[C@@H]3N(C(=O)CN(C)N3C(=O)NCc3ccccc3)[C@@H](Cc3ccc(O)cc3)C2=O)c1 | 0 | 94 | – | – | – | – | – | –
35 | 10.9 ± 1.3 | Cc1cccc(CN2C[C@@H]3N(C(=O)CN(C)N3C(=O)NCc3ccccc3)[C@@H](Cc3ccc(O)cc3)C2=O)c1N(C)C | 0 | 68 | – | – | – | – | – | –
36 | 10.7 ± 1.9 | Cc1ccc(N(C)C(C)C)c(CN2C[C@@H]3N(C(=O)CN(C)N3C(=O)NCc3ccccc3)[C@@H](Cc3ccc(O)cc3)C2=O)c1 | 14 | 99 | – | – | – | – | – | –
37 | 50.4 ± 7 | CN1CC(=O)N2[C@@H](CN(Cc3c(Cl)ccc4cccnc34)C(=O)[C@@H]2Cc2ccc(O)cc2)N1C(=O)NCc1ccccc1 | 0 | 32 | – | – | – | – | – | –
38 | 3.5 ± 0.3 | CCN(CC)c1cccc(CN2C[C@@H]3N(C(=O)CN(C)N3C(=O)NCc3ccccc3)[C@@H](Cc3ccc(O)cc3)C2=O)c1 | 0 | 77 | – | – | – | – | – | –

Reference: US7671054B1, “Reverse-turn mimetics and method relating thereto” (Choongwae Pharma Corporation, priority 2001, dated 2010)
